Data: patent US10501452B2, “Lactam compound derivative and application thereof” (NHWA PHARMA. CORPORATION, priority 2015, dated 2019)

Tests used:
[1] = molecular target: 5-HT1A (Rattus norvegicus (Rat), UniProt P19327); experiment: 5-HT1A receptor binding assay (3H-8-OH-DPAT)
Experimental: Rats were decapitated. […] Incubation at 37° C. was conducted for 10 min. […] Centrifugation was conducted and repeated 3 times.
(§1) Materials for the Receptor Binding Assay

[2] = test system: conditioned avoidance response in rats; experiment: animal or person; format: in vivo, rat
Experimental: […] of SD rats, male.
Firstly, training the rats with shuttle box:
(1) The rats were allowed for adaption for five minutes;
(2) Conditioned stimulus (CS, light and noise) were started and lasted for 20 s, and at the tenth second, unconditioned stimulus (US, 1.5 mA electric shock) was performed and lasted for 10 s;
(3) Training was conducted 30 times per day for 9 days. The interval between two trainings was set randomly ranged from 20 to 30 s;
(4) Observation indicators:
The animal ran to another compartment during the conditioning stimulus was recorded as “avoidance”;
Animals ran to another compartment during the electric shock was recorded as “escape”;
Grouping of the qualified rats: the qualified rats were divided into negative control group, positive drug groups of each dosage, and compound groups of each dosage according to the principle of randomization, 8 in each group.
Administration Method: Corresponding solvent was administered intragastrically to the negative control group; corresponding dosages of positive drugs were administered intragastrically to the positive drug groups of each dosage; and corresponding dosages of compounds were administered intragastrically to the compound groups of each dosage.
CAR Assay: A CAR assay was performed 1 hour after intragastric administration. The method was the same as the CAR training. The observation indicators were the number of avoidances, the number of escapes, and the number of escape failures.
Statistical Data Processing: Assay data are presented as mean±standard deviation (Mean±SD), the comparison was performed by a combination of one-way ANOVA with post-hoc LSD. The ED50 was calculated using the probit method.

[3] = Acute toxicity study (rats); conditions: both sexes, KM, in vivo, po, 2000 mg/kg; rat, intragastric
Experimental: (§2) Example 41: Acute Toxicity Study
(§3) Limit test of sequential assay: KM rats or mice (half male and half female) were randomly divided into several groups (with 2-5 mice in each group), which were respectively the 2000 mg/kg groups for each compound, and the solvent group. 0.2 ml/10 g were administered intragastrically. The deaths of the animals in 3 days were observed. In the case 3 or more animals survived in 3 days without notable abnormity in their life states, the observation was continued until the assay was completed in 7 days. In the case 3 or more animals died in 3 days, the method of median lethal dose was used to determine the LD50.
(§4) Results: The compound of the invention has relatively low acute toxicity.

[4] = molecular target: Histamine H1 receptor (Cavia porcellus (Guinea pig), UniProt P31389); experiment: Histamine H1 receptor binding assay (3H-pyrilamine)
Sequence of Histamine H1 receptor (P31389 whole entry): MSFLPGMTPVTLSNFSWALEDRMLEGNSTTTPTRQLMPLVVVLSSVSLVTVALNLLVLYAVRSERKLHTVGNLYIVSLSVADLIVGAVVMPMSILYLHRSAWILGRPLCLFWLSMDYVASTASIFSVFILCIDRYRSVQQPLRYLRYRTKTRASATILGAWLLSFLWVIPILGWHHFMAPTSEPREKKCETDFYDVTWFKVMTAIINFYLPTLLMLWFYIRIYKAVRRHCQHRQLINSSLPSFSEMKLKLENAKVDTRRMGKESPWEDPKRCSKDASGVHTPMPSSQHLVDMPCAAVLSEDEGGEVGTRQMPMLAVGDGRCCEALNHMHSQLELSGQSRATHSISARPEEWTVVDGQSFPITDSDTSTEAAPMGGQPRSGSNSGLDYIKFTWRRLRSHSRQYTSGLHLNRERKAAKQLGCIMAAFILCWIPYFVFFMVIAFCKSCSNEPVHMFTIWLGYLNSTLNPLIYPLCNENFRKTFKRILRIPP
Experimental: Preparation of Histamine H1 Receptor Membrane
Guinea pigs were decapitated. […] Vortex mixer was used for blending. Centrifugation was conducted at 48000 g, 4° C. for 10 min. The supernatant was discarded to give pellets, and buffer was added again for washing. Centrifugation was conducted and repeated 3 times.
as §1
(2) 100 μL of membrane preparation was added into each reaction tube.

[5] = molecular target: 5-HT2A (Rattus norvegicus (Rat), UniProt P14842); experiment: 5-HT2A receptor binding assay ([3H]-Ketanserin)
Sequence of 5-HT2A (P14842 whole entry): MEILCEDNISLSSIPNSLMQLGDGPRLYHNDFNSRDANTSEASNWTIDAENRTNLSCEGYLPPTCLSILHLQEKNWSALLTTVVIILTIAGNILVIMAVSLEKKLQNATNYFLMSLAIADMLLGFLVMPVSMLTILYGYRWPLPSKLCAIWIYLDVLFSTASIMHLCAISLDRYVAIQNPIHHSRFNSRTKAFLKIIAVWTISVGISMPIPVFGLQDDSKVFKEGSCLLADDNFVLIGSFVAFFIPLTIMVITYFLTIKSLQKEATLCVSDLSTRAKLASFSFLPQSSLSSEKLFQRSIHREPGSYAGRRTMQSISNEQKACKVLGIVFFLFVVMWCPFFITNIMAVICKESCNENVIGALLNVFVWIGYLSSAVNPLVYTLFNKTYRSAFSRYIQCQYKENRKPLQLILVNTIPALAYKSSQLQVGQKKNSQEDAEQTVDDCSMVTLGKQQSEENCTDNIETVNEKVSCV
Experimental: Rats were decapitated. Cortex of brain was rapidly taken on ice, and 3 ml of buffer (0.05 M Tris-HCl buffer: 6.05 g of Tris was dissolved in 1000 ml of double-distilled water, and concentrated HCl was used to adjust to pH 7.5) was added, homogenization was conducted, and then 5 ml of buffer was added. Incubation was conducted at 37° C. for 10 min, the weight of the tubes were adjusted using a balance after incubation. Centrifugation was conducted at 12000 rpm, 4° C. for 20 min, the supernatant was discarded, and 3 ml of buffer was added. Vortex mixer was used for blending, and then 5 ml of buffer was added. Centrifugation was conducted (repeated 3 times). After the centrifugation, the supernatant was discarded, and the pellets were stored at −80° C. for future use.
(1) The prepared membrane was applied with buffer, and homogenizer was used for evenly dispersing. 15 tubes were mixed into a 100 ml container, and appropriate amount of buffer was added to give 50 ml of membrane suspension, which was reserved for future use.
(2) 100 μL of membrane preparation and 100 μL of buffer were added into each reaction tube.
(3) 100 μL of buffer was added into the total binding tube (TB), 100 μL of Methysergide (final concentration 10^−5M) was added into the nonspecific binding tube (NB), 100 μL of the test compound (final concentration 10^−5M) was added into the specific binding tube (SB) of each test compound.
(5) Each of the reaction tubes was incubated at 37° C. for 15 min. After the reaction was completed, the bound ligands were rapidly filtered under reduced pressure, and sufficiently washed with ice-chilled assay buffer. The filter was taken out and put into a 3 ml scintillation vial, and 2 ml of toluene scintillation cocktail was added and blended.
(6) The scintillation vial were put into Liquid Scintillation Counter for counting. Inhibition rate(I%)=(Total binding tube cpm−compound cpm)/(Total binding tube cpm−nonspecific binding tube cpm)×100%

[6] = molecular target: 5-HT7 receptor (Rattus norvegicus (Rat), UniProt P32305); experiment: 5-HT7 receptor binding assay ([3H]-5-CT)
Sequence of 5-HT7 receptor (P32305 whole entry): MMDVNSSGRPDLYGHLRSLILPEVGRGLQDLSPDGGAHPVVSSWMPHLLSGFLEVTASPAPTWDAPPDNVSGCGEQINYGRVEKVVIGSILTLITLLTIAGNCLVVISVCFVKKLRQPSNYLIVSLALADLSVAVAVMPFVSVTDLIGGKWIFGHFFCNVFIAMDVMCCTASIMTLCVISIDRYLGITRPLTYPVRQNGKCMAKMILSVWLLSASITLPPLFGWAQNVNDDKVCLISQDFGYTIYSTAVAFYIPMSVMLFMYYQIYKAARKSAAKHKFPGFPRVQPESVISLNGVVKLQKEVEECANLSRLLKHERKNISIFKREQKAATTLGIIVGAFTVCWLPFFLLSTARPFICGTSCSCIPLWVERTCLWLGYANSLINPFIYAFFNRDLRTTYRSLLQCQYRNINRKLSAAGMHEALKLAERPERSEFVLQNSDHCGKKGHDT
Experimental: Adult SD rats were decapitated. […] Centrifugation was conducted (repeated 3 times).
as §1

[7] = test system: Apomorphine induced clambering in mice; experiment: Apomorphine induced clambering assay of mice; format: in vivo
Experimental: Healthy KM mice, male, with body weight of 18-22 g, were provided by Qinglongshan Animal Cultivation Center, Nanjing.
Apomorphine provided by Sigma Company was dissolved in 0.9% NaCl (containing 0.1% vitamin C) before use, and was freshly formulated before use.
Vitamin C, F20061113, was provided by Sinopharm Chemical Reagent Co. Ltd.
Instruments: self-made clambering cage, chronograph.
Procedures: apomorphine induced clambering assay of mice
After 5 min of adaptation, the behavior of the mice at 10-11, 20-21, and 30-31 min after the injection of apomorphine were observed and scored.

[8] = test system: catalepsy in mice; experiment: in vivo; conditions: mouse, in vivo
Experimental: (§5) The durations of the mice to maintain the posture with the two forepaws on the bars were recorded, and 30 s of spasticity without moving was considered as the positive response. In the case the forepaws of the mice were not put down persistently, the observation was terminated at 60 s. The numbers of animals with positive response in each of the compound dosage groups were counted.

[9] = in vivo; conditions: both, Kunming, mouse, in vivo, po
Experimental: as §5

[10] = test system: mice; experiment: Acute toxicity study (mice); format: in vivo; conditions: intragastric
Experimental: as §2, §3
(§6) Pre-assay for the method of the median lethal dose: KM mice (half male and half female) were randomly divided into several groups (with 4 mice in each group), which were respectively the 500 mg/kg, 200 mg/kg, 50 mg/kg groups for each compound, and the solvent group. 0.2 ml/10 g were administered intragastrically, and the deaths of the animals in 1-3 days were observed.
as §4

[11] = Acute toxicity study (mice); format: in vivo; conditions: both sexes, KM, mouse, in vivo, po, intragastric
Experimental: as §2, §3, §6, §4

Sequence of 5-HT1A (P19327 whole entry): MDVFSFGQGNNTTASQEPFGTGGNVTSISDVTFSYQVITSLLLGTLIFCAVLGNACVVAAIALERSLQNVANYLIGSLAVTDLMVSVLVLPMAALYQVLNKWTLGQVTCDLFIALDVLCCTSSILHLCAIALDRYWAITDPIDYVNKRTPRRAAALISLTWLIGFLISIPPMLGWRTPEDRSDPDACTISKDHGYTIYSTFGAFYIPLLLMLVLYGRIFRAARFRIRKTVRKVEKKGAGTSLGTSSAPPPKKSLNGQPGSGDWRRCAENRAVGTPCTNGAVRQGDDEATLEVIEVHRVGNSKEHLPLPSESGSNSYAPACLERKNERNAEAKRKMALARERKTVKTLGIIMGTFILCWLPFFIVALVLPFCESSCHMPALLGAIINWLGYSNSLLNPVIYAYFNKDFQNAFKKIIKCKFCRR

SMILES: CN1CCc2ccc(OCCCN3CCC(c4noc5cc(F)ccc45)CC3)cc2C1=O [Compound 5, 7-(3-(4-(6-fluorobenzo[d]isoxazol-3-yl)piperidin-1-yl)propoxy)-2-methyl-3,4-dihydroisoquinolin-1(2H)-one]
- affinity for 5-HT1A (in words) [1]: strong affinities
- Ki ([1]; rat cortex membrane, 3H-8-OH-DPAT): 2.4 nM
- ED50 ([2]; Rattus norvegicus, po, 1 h, read-out: Rat CAR ED50 (mg/kg)): 0.32 mg/kg
- performance in the rat CAR model (in words) ([2]; rat, compared with risperidone): markedly better than risperidone
- LD50 at 3 days [3]: 168 mg/kg
- affinity for H1 (in words) [4]: low affinity
- Ki ([4]; guinea pig cerebellum membrane, 3H-pyrilamine): > 2000 nM
- affinity for 5-HT2A (in words) [5]: strong affinities
- Ki ([5]; read-out: Ki (nM) 5-HT2A, rat cortex membrane, [3H]-Ketanserin): 0.1 nM
- affinity for 5HT7 (in words) [6]: high affinity
- Ki ([6]; rat hypothalamus membrane, [3H]-5-CT): 5.9 nM
- ED50 ([7]; Mus musculus, po, read-out: Apomorphine induced clambering (ED50, po, mg/kg)): 0.05 mg/kg
- improvement of apomorphine induced clambering symptoms (in words) ([7]; mice, compared with risperidone): effectively improve
- Catalepsy/Apomorphine induced clambering ([8]; both, Kunming (KM)): 700
- Catalepsy/MK-801 induced high activity ([8]; both, Kunming (KM)): 875
- EPS in effective dosage (in words) [8]: do not cause EPS
- ED50 [9]: 35 mg/kg
- LD50 (po, mg/kg) [10]: 257 mg/kg
- LD50 [11]: 258 mg/kg
